Here are results for four substances from patent US20130123168A1, “HUMANIN AND HUMANIN-ANALOGUES FOR THE MANAGEMENT OF ATHEROSCLEROSIS” (The Regents of the University of California, priority 2011, published 2013).

“Also recorded” adds a separate entry of the source.

The test system of test [1] is NIT cells. The settings on record: cited from earlier work.
For test [2], the system named is atherosclerotic plaques in proximal aorta. Description: Morphometric analysis of plaque size in proximal aorta cross sections. Type of test: in vivo, mice. The settings on record: IP 0.4 mg/kg/day, 16 weeks.
Test [3] deals with atherosclerotic plaque in the aortic arch. Description: TUNEL staining of apoptotic cells in plaques of the aortic arch. The class given is in vivo. To be noted: Group 4: ApoE-deficient mice, high cholesterol diet. The method, then:
The effect of HNGF6A on mice was studied in 4 different animal groups (n=12 per group); Group 1: C57BL/6 feed normal diet+intraperitoneal (IP) saline, Group 2: C57BL/6 feed normal diet+IP HNGF6A, Group 3: ApoE-deficient feed high cholesterol diet+IP saline, and Group 4: ApoE-deficient feed high cholesterol diet+IP HNGF6A (Group 4). Experiment was conducted over the course of 16 weeks. Female C57BL/6 mice and Apo E-deficient mice were obtained at the age of 4 weeks from Jackson Laboratory Animals had free access to water, were maintained at 24° C., and kept at a 12 hr light/dark cycle. Depending on the study group, the mice were treated with a normal diet or high cholesterol diet (HC, 0.15% cholesterol and 42% milk fat by weight, TD88137 or “Western diet”; Harlan Teklad) and received intraperitoneal injection (IP) of saline or HNGF6A (glycine variant of HN, 0.4 mg/kg/day, Peptide International, Louisville, Ky.) for 16 weeks. […] Blood samples were collected by cardiac puncture. Terminal deoxynucleotidyl transferase dUTP nick end labeling (TUNEL) was performed using the in situ Apoptosis Detection Kit (S7100-KIT; Chemicon). The procedure was performed following the manufacturers' protocol. […] The number of positive cells in atherosclerotic plaque was counted using x400 magnification. […] Data was expressed as mean±SEM. […]

Test [4] has as its system human aortic endothelial cells (HAECs). Put plainly: Cellular ceramide levels by HPLC/MS/MS after Ox-LDL. The class given is cell-based. To be noted: 0.1 μM overnight, then Ox-LDL 100 μg/ml for 6 hours. The method, then:
HAECs were plated on glass cover slips and incubated overnight with or without added HN (0.1 μM). The cells were then exposed to Ox-LDL (100 μg/ml; Biomedical Technologies Inc.) for 6 hours. Cells were then scraped into PBS, pelleted and frozen in liquid nitrogen. These samples were sent to MUSC-lipidomics core (Lipidomics Analytical Unit) for processing to detect and quantify individual ceramide species by HPLC/MS/MS.

Test [5] shares this test system. Put plainly: Ox-LDL induced ROS production, dihydroethidium (DHE) fluorescence. Type of test: cell-based. As to the method: Prior studies have reported that treatment of vascular endothelial cells with oxidized low density lipoprotein (LDL) stimulates reactive oxygen species (ROS) formation. To test whether humanin (HN) affects Ox-LDL induced ROS production in endothelial cells, the fluorescent probe dihydroethidium was utilized in order to detect superoxide in living cells. DHE fluorescence was measured in human aortic endothelial cells (HAECs) preincubated with HN and subsequently exposed to Ox-LDL. Intracellular ROS production was monitored by following the conversion of the oxidant sensitive dye dihydroethidine to fluorescent ethidium.
To accomplish this, as described in Bachar et al. (2010) Cardiovasc. Res. 88(2):360-6 (incorporated by reference in its entirety). […] Fluorescent images were then taken with an inverted fluorescent microscope (Olympus IX70) at 15× magnification using appropriate filters fro ethidium fluorescence. Ten to twelve non-overlapping images in each culture dish were acquired and quantified by image analysis using Metamorph software (Molecular Devices). Only those cells whose fluorescence exceeded twice the basal level of fluorescence of non-treated cells were used for quantification of DHE fluorescence. Values are expressed as average relative fluorescence units for n≧100 cells per experimental condition in 2 independent experiments. […]

Test [6] shares this test system. Put plainly: TUNEL assay of Ox-LDL induced apoptosis in HAEC. Type of test: cell-based. To be noted: pre-incubated overnight with 0.1 μM, then 100 μg/ml Ox-LDL for 6 hours. The method, then:
To accomplish this, a TUNEL assay was applied to measure the levels of apoptosis in HAECs treated with or without HN prior to exposure with Ox-LDL (FIG. 2). HAECs were plated on glass cover slips and incubated overnight with or without added HN (0.1 μM). The cells were then exposed to Ox-LDL (100 μg/ml; Biomedical Technologies Inc.) for 6 hours at 37° C. in the absence of HN. Apoptotic cells were quantified by TUNEL assay using the In Situ Death Detection Kit® (Roche Applied Science), mounted in SlowFade containing DAPI (Invitrogen) and observed by flourescent microscope. Apoptotic cells were defined based in morphological changes in the nuclei and the fluorescent intensity after TUNEL staining. The apoptotic index (AI)=(number of apoptotic cells)/(total number of cells)

As for “F6AK21A-HNG: SEQ ID NO:17 MAPRGASCLLLLTGEIDLPVARRA (listed as Homo sapiens)”, the “potency compared to humanin in promoting survival and activating STAT-3 and ERK” value (shortened to “potency compared to humanin”) in test [1] is reported as “even greater potency”.
As for “HNGF6A: HN analogue, SEQ ID NO:16 MAPRGASCLLLLTGEIDLPVKRRA (listed as Homo sapiens)”, the “potency compared to humanin” value in test [1] is “even greater potency”. In addition, the “presence of plaque in aorta” value in test [2] (Group 2: C57BL/6 mice, normal diet, 0.4 mg/kg/day) is on record as “Plaques were not visible; also recorded: no plaque was apparent”. In test [2] (Group 4: ApoE-deficient mice, high cholesterol diet), this substance had a plaque size of 0.01±0.003 mm^2. In test [3] (IP), the “numbers of apoptotic cells in plaques compared to Group 3 (in words)” value is listed as “significantly decreased”. In test [3] (IP 0.4 mg/kg/day, 16 weeks, mean±SEM), the “number of apoptotic cells in plaques in the aortic arch” value is recorded as 84±17 cells/mm^2.
For “humanin (MAPRGFSCLLLLTSEIDLPVKRRA; listed as Homo sapiens) [HN]”, the “total cellular amount of ceramides, including C16-ceramide” value in test [4] is listed as “decrease”. The “decrease in ROS production” value in test [5] (HN pretreatment overnight prior to Ox-LDL (100 μg/ml, 30 min) exposure) was “approximately 50%”. The “decrease in Ox-LDL induced ROS formation, dose dependence” value in test [5] (HN titration) is “dose-dependent manner”. Besides, the “relative decrease in apoptosis compared to cells without pretreatment” value in test [6] is on record as “more than 50%”.
For “Z-FIN: SEQ ID NO:18 MAKRGLNCLPHQVSEIDLSVQKRI (listed as Homo sapiens)”, in test [1], the “potency compared to humanin” value was “two-fold greater potency than humanin”.
